Measurements taken from patent US20150105252A1, “SUBSTITUTED PYRAZOLES AS HERBICIDES” (E I DU PONT DE NEMOURS AND COMPANY, priority 2013, published 2015).

Key:
barnyardgrass [1] = assay: Test A postemergence; format: in vivo, Echinochloa crus-galli
In short: (§1)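 Visual injury rating, 0–100 (0 no effect, 100 complete control), vs untreated controls ~10 days after treatment in greenhouse. Pre: directed soil spray on seeded loam/sand. Post: 2–10 cm plants, 1–2 leaf stage. Formulation: non-phytotoxic solvent mix + surfactant.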

blackgrass = assay: Test C preemergence; format: in vivo, Alopecurus myosuroides; settings: for Blackgrass plant response rating / Plant response rating, Blackgrass: preemergence; for Plant response rating, Blackgrass: scale 0 to 100, 0 = no effect, 100 = complete control
In short: (§2)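 Scores of 0 (no effect) to 100 (complete control) were assigned by eye after 13–15 days, comparing treated pots with controls. Soil-applied (preemergence) treatments went onto seeds in loam and sand; foliar (postemergence) treatments onto 1- to 4-leaf plants in peat medium.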

crabgrass, large = assay: Test C postemergence; format: in vivo, Digitaria sanguinalis; settings: for Plant response rating (scale of 0 to 100 where 0 is no effect and 100 is complete control), Crabgrass, Large: Postemergence, 31 g ai/ha, visually evaluated after 13 to 15 days; for Crabgrass, Large plant response rating / Plant response rating, Crabgrass, Large: postemergence; for Crabgrass, Large plant response rating: 62 g ai/ha, scale 0 to 100
In short: as §2

ducksalad = assay: Test B flood; format: in vivo, Heteranthera limosa; settings: 250 g ai/ha, visual rating on 0 to 100 scale (0 no effect, 100 complete control), 13 to 15 days
In short: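 Greenhouse assay lasting 13 to 15 days. Treatment was into water flooding pots 3 cm deep, at the 2-leaf stage, with that level sustained afterwards. Scores compare treated with control plants visually, 100 denoting complete control and 0 no effect; a dash marks no test result.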

johnsongrass = assay: Test C preemergence; format: in vivo, Sorghum halepense
In short: as §2

corn = assay: Test C postemergence; format: in vivo, Zea mays; settings: for Plant response rating (scale of 0 to 100 where 0 is no effect and 100 is complete control), Corn: Postemergence, 31 g ai/ha, visually evaluated after 13 to 15 days; for Corn plant response rating / Plant response rating, Corn: postemergence; for Corn plant response rating: 62 g ai/ha, scale 0 to 100
In short: as §2

barnyardgrass [2] = assay: Test C preemergence; format: in vivo, Echinochloa crus-galli; settings: for Barnyardgrass plant response rating / Plant response rating, Barnyardgrass: preemergence; for Plant response rating, Barnyardgrass: scale 0 to 100, 0 = no effect, 100 = complete control
In short: as §2

ryegrass, Italian = assay: Test C postemergence; format: in vivo, Lolium multiflorum
In short: as §2

soybean = assay: Test C preemergence; format: in vivo, Glycine max
In short: as §2

pigweed = assay: Test C postemergence; format: in vivo, Amaranthus retroflexus; settings: for Pigweed plant response rating / Plant response rating, Pigweed: postemergence; for Pigweed plant response rating: 62 g ai/ha, scale 0 to 100
In short: as §2

morningglory = assay: Test A preemergence; format: in vivo, Ipomoea spp.; settings: preemergence; for Morningglory plant response rating (0 to 100 scale): visual injury approx. 10 days after treatment
In short: as §1

lambsquarters = assay: Test C preemergence; format: in vivo, Chenopodium album
In short: as §2

chickweed = assay: Test C postemergence; format: in vivo, Stellaria media; settings: for Plant response rating (scale of 0 to 100 where 0 is no effect and 100 is complete control), Chickweed: Postemergence, 31 g ai/ha, visually evaluated after 13 to 15 days; for Chickweed plant response rating / Plant response rating, Chickweed: postemergence; for Chickweed plant response rating: 62 g ai/ha, scale 0 to 100
In short: as §2

[3] = Postemergence, 500 g ai/ha, 0 to 100 scale (0 no effect, 100 complete control)
[4] = postemergence, 125 g ai/ha, about 10 days, visual rating on 0 to 100 scale (0 no effect, 100 complete control)
[5] = 31 g ai/ha, visual rating, scale 0 to 100 (0 no effect, 100 complete control), 13 to 15 days
[6] = 62 g ai/ha, scale 0 to 100 (0 no effect, 100 complete control), 13 to 15 days
[7] = 250 g ai/ha, scale 0 to 100, 0 is no effect, 100 is complete control
[8] = 250 g ai/ha, scale 0 to 100 (0 no effect, 100 complete control)
[9] = 125 g ai/ha, scale 0 to 100, 0 no effect, 100 complete control
[10] = preemergence, 31 g ai/ha, visual rating, scale 0 to 100 (0 no effect, 100 complete control), 13 to 15 days
[11] = preemergence, 62 g ai/ha, scale 0 to 100 (0 no effect, 100 complete control), 13 to 15 days
[12] = preemergence, 125 g ai/ha, 13 to 15 days, scale 0 to 100, 0 = no effect, 100 = complete control
[13] = preemergence, 250 g ai/ha, scale 0 to 100, 0 is no effect, 100 is complete control
[14] = postemergence, 250 g ai/ha, scale 0 to 100 (0 no effect, 100 complete control)
[15] = postemergence, 125 g ai/ha, scale 0 to 100, 0 no effect, 100 complete control
[16] = 500 g ai/ha, visual injury after approx. 10 days, 0 to 100 scale (0 no effect, 100 complete control)
[17] = 125 g ai/ha, scale 0 to 100, 0 is no effect, 100 is complete control
[18] = preemergence, 125 g ai/ha, scale 0 to 100, 0 is no effect, 100 is complete control
[19] = Postemergence, 31 g ai/ha, visually evaluated after 13 to 15 days
[20] = Preemergence, rate head not shown (block before 16 g ai/ha), scale 0 to 100

CCNC(=O)c1cc(CC)n(Cc2cc(C(F)(F)F)nn2C)n1 [Compound 154]
Barnyardgrass plant response rating (barnyardgrass [1]; [3]): 100
Barnyardgrass plant response rating (barnyardgrass [1]; [4]): 100
Blackgrass plant response rating (blackgrass; [5]): 75
Blackgrass plant response rating (blackgrass; [6]): 90
Plant response rating, Blackgrass (blackgrass; 125 g ai/ha, 13 to 15 days): 90
Blackgrass plant response rating (blackgrass; [7]): 90
Plant response rating (scale of 0 to 100 where 0 is no effect and 100 is complete control), Crabgrass, Large (crabgrass, large): 5
Crabgrass, Large plant response rating (crabgrass, large): 5
Plant response rating, Crabgrass, Large (crabgrass, large; [8]): 10
Plant response rating, Crabgrass, Large (crabgrass, large; [9]): 5
Plant response rating, Ducksalad (ducksalad): 90
Johnsongrass plant response rating (johnsongrass; [10]): 5
Johnsongrass plant response rating (johnsongrass; [11]): 5
Plant response rating, Johnsongrass (johnsongrass; [12]): 55
Johnsongrass plant response rating (johnsongrass; [13]): 85
Plant response rating (scale of 0 to 100 where 0 is no effect and 100 is complete control), Corn (corn): 5
Corn plant response rating (corn): 5
Plant response rating, Corn (corn; [8]): 10
Plant response rating, Corn (corn; [9]): 10
Barnyardgrass plant response rating (barnyardgrass [2]; [5]): 55
Barnyardgrass plant response rating (barnyardgrass [2]; [6]): 95
Plant response rating, Barnyardgrass (barnyardgrass [2]; 125 g ai/ha, 13 to 15 days): 100
Barnyardgrass plant response rating (barnyardgrass [2]; [7]): 100
Plant response rating, Ryegrass, Italian (ryegrass, Italian; [14]): 5
Plant response rating, Ryegrass, Italian (ryegrass, Italian; [15]): 0
Soybean plant response rating (soybean; [10]): 35
Soybean plant response rating (soybean; [11]): 80
Plant response rating, Soybean (soybean; [12]): 95
Soybean plant response rating (soybean; [13]): 98
Pigweed plant response rating (pigweed): 65
Plant response rating, Pigweed (pigweed; [8]): 95
Plant response rating, Pigweed (pigweed; [9]): 85
Morningglory plant response rating (0 to 100 scale) (morningglory; 125 g ai/ha): 100
Morningglory plant response rating (morningglory; [16]): 100
Lambsquarters plant response rating (lambsquarters; [10]): 65
Lambsquarters plant response rating (lambsquarters; [11]): 98
Plant response rating, Lambsquarters (lambsquarters; [12]): 100
Lambsquarters plant response rating (lambsquarters; [13]): 98
Plant response rating (scale of 0 to 100 where 0 is no effect and 100 is complete control), Chickweed (chickweed): 60
Chickweed plant response rating (chickweed): 70
Plant response rating, Chickweed (chickweed; [8]): 90
Plant response rating, Chickweed (chickweed; [9]): 60

CCc1cc(C(=O)NCC(F)(F)F)nn1Cc1cc(C(F)(F)F)nn1C [Compound 108, 5-ethyl-1-[[1-methyl-3-(trifluoromethyl)-1H-pyrazole-5-yl]methyl]-N-(2,2,2-trifluoroethyl)-1H-pyrazole-3-carboxamide]
Barnyardgrass plant response rating (barnyardgrass [1]; Postemergence, 500 g ai/ha, visual rating after approx. 10 days, 0 to 100 scale (0 no effect, 100 complete control)): 90
Barnyardgrass plant response rating (barnyardgrass [1]; [4]): 90
Plant response rating (scale of 0 to 100), Blackgrass (blackgrass; Preemergence, 250 g ai/ha): 100
Blackgrass plant response rating (blackgrass; [5]): 100
Blackgrass plant response rating (blackgrass; [6]): 100
Blackgrass plant response rating (blackgrass; [17]): 100
Plant response rating (scale of 0 to 100 where 0 is no effect and 100 is complete control), Crabgrass, Large (crabgrass, large): 5
Crabgrass, Large plant response rating (crabgrass, large): 10
Plant response rating, Crabgrass, Large (crabgrass, large; [8]): 50
Plant response rating, Crabgrass, Large (crabgrass, large; [9]): 10
Plant response rating, Ducksalad (ducksalad): 60
Plant response rating (scale of 0 to 100), Johnsongrass (johnsongrass; Preemergence, 250 g ai/ha): 100
Johnsongrass plant response rating (johnsongrass; [10]): 35
Johnsongrass plant response rating (johnsongrass; [11]): 90
Johnsongrass plant response rating (johnsongrass; [18]): 100
Plant response rating (scale of 0 to 100 where 0 is no effect and 100 is complete control), Corn (corn): 5
Corn plant response rating (corn): 5
Plant response rating, Corn (corn; [8]): 35
Plant response rating, Corn (corn; [9]): 15
Plant response rating (scale of 0 to 100), Barnyardgrass (barnyardgrass [2]; Preemergence, 250 g ai/ha): 100
Barnyardgrass plant response rating (barnyardgrass [2]; 31 g ai/ha, scale 0 to 100 (0 no effect, 100 complete control), 13 to 15 days): 50
Barnyardgrass plant response rating (barnyardgrass [2]; [6]): 100
Barnyardgrass plant response rating (barnyardgrass [2]; [17]): 100
Plant response rating (scale of 0 to 100 where 0 is no effect and 100 is complete control), Ryegrass, Italian (ryegrass, Italian; [19]): 0
Ryegrass, Italian plant response rating (ryegrass, Italian; postemergence, 62 g ai/ha, scale 0 to 100): 5
Plant response rating, Ryegrass, Italian (ryegrass, Italian; [14]): 20
Plant response rating, Ryegrass, Italian (ryegrass, Italian; [15]): 5
Plant response rating (scale of 0 to 100), Soybean (soybean; Preemergence, 250 g ai/ha): 98
Soybean plant response rating (soybean; [10]): 20
Soybean plant response rating (soybean; [11]): 90
Soybean plant response rating (soybean; [18]): 95
Plant response rating (scale of 0 to 100 where 0 is no effect and 100 is complete control), Pigweed (pigweed; [19]): 40
Pigweed plant response rating (pigweed): 45
Plant response rating, Pigweed (pigweed; [8]): 90
Plant response rating, Pigweed (pigweed; [9]): 50
Morningglory plant response rating (morningglory; 125 g ai/ha, visual injury, 0 to 100 scale, approx. 10 days): 100
Morningglory plant response rating (morningglory; [16]): 100
Plant response rating (scale of 0 to 100), Lambsquarters (lambsquarters; Preemergence, 250 g ai/ha): 100
Lambsquarters plant response rating (lambsquarters; [10]): 100
Lambsquarters plant response rating (lambsquarters; [11]): 100
Lambsquarters plant response rating (lambsquarters; [18]): 100
Plant response rating (scale of 0 to 100 where 0 is no effect and 100 is complete control), Chickweed (chickweed): 85
Chickweed plant response rating (chickweed): 100
Plant response rating, Chickweed (chickweed; [8]): 100
Plant response rating, Chickweed (chickweed; [9]): 100

CCc1cc(C(=O)NCC(F)(F)F)nn1Cc1ccnc(Br)c1 [Compound 224]
Barnyardgrass plant response rating (barnyardgrass [1]; Postemergence, 125 g ai/ha, 0 to 100 scale, 0 no effect, 100 complete control): 90
Barnyardgrass plant response rating (barnyardgrass [1]; [3]): 100
Blackgrass plant response rating (blackgrass; [5]): 80
Blackgrass plant response rating (blackgrass; [6]): 100
Plant response rating, Blackgrass (blackgrass; 125 g ai/ha, 13 to 15 days): 80
Blackgrass plant response rating (blackgrass; [7]): 90
Plant response rating (scale of 0 to 100 where 0 is no effect and 100 is complete control), Crabgrass, Large (crabgrass, large): 5
Crabgrass, Large plant response rating (crabgrass, large): 5
Plant response rating, Crabgrass, Large (crabgrass, large; [8]): 20
Plant response rating, Crabgrass, Large (crabgrass, large; [9]): 5
Plant response rating, Ducksalad (ducksalad): 75
Plant response rating, Johnsongrass (johnsongrass; [20]): 15
Johnsongrass plant response rating (johnsongrass; [11]): 50
Plant response rating, Johnsongrass (johnsongrass; [12]): 60
Johnsongrass plant response rating (johnsongrass; [13]): 98
Plant response rating (scale of 0 to 100 where 0 is no effect and 100 is complete control), Corn (corn): 5
Corn plant response rating (corn): 5
Plant response rating, Corn (corn; [8]): 10
Plant response rating, Corn (corn; [9]): 10
Barnyardgrass plant response rating (barnyardgrass [2]; [5]): 25
Barnyardgrass plant response rating (barnyardgrass [2]; [6]): 40
Plant response rating, Barnyardgrass (barnyardgrass [2]; 125 g ai/ha, 13 to 15 days): 100
Barnyardgrass plant response rating (barnyardgrass [2]; [7]): 100
Plant response rating, Ryegrass, Italian (ryegrass, Italian; [14]): 5
Plant response rating, Ryegrass, Italian (ryegrass, Italian; [15]): 5
Plant response rating, Soybean (soybean; [20]): 10
Soybean plant response rating (soybean; [11]): 40
Plant response rating, Soybean (soybean; [12]): 65
Soybean plant response rating (soybean; [13]): 90
Pigweed plant response rating (pigweed): 50
Plant response rating, Pigweed (pigweed; [8]): 75
Plant response rating, Pigweed (pigweed; [9]): 50
Morningglory plant response rating (0 to 100 scale) (morningglory; 125 g ai/ha): 30
Plant response rating, Lambsquarters (lambsquarters; [20]): 100
Lambsquarters plant response rating (lambsquarters; [11]): 100
Plant response rating, Lambsquarters (lambsquarters; [12]): 100
Lambsquarters plant response rating (lambsquarters; [13]): 100
Plant response rating (scale of 0 to 100 where 0 is no effect and 100 is complete control), Chickweed (chickweed): 50
Chickweed plant response rating (chickweed): 55
Plant response rating, Chickweed (chickweed; [8]): 90
Plant response rating, Chickweed (chickweed; [9]): 55
